Results: patent publication US12187758B2 (ROME Therapeutics, Inc., priority 2022, dated 2025)
Like-named read-outs stand apart in the source and are kept apart here.

Tests used:
THP1-Dual KO-TREX1 cells = test: THP1 TREX1 KO inhibition assay, combination dosing; format: cell-based; conditions: for EC50: Homo sapiens, THP1-Dual, read-out: EC50 of Compound 2
Description: Exemplary compounds were tested to determine the effect of combined dosing of two compounds on the type 1 interferon response in THP1 Dual TREX1 KO cells treated with 5-aza-2′-deoxycytidine. Assay procedures and results are described below.
THP1 Dual TREX1 KO cells were purchased from InvivoGen. The THP1-Dual™ KO-TREX1 cells were cultured in RPMI 1640, 10% heat-inactivated fetal bovine serum, 25 mM HEPES, 10 μg/mL blasticidin, and 100 μg/mL Zeocin. THP1-Dual™ KO-TREX1 cells were treated with a dose titration of test compound in the presence of 1 μM 5-aza-2′-deoxycytidine (Sigma, cat #189825). Type 1 Interferon and cell viability were assessed after five days of treatment.
Stock solution of test compounds stampidine and Compound 2 were prepared in DMSO followed by a three-fold dilution in DMSO. The plate was prepared with a matrix of test compound concentrations, with stampidine on the y-axis (final concentrations 3 μM to 0.0003 μM) and Compound 2 on the x-axis (final concentrations 0.3 μM to 0.00003 μM). Additional 50× dilution was prepared in cell culture media for each dilution. 10 μL of diluted test compound was then added to a 384-well plate.
THP1-Dual™ KO-TREX1 cells were treated with 1 μM 5-aza-2′-deoxycytidine. THP1-Dual™ KO-TREX1 cells (50 μL) were added to each well of the 384-well plate containing test compound titration at 10,000 cells/well. Cells were incubated at 37° C., 5% CO2 in a humidified incubator for five days. On day five, 20 μL of cell supernatant was transferred to a 384-well, white-walled plate, followed by addition to each well of 50 μL of QUANTI-LUC solution containing stabilizer. Luminescence was detected on a plate reader according to manufacturer's instructions. Percent inhibition of interferon was calculated using the following analysis: (Average DMSO-Sample)/(Average DMSO-Average 30 μM stampidine)*100.
The remaining cells were assessed for cell viability by adding 30 μl of CellTiter-Glo (Promega, G9683) solution to each well, and placed on a shaker for 10 minutes at room temperature. Luminescence was detected on a plate reader, according to manufacturer's instructions. Percent inhibition of cell viability using CellTiter-Glo was calculated using the following analysis: (Average DMSO−Sample)/(Average DMSO−Average 20 μM viability control reagent)*100.
Combination analysis was performed using the Bivariate Response to Additive Interacting Doses (BRAID) according to Twarog, N. R., et al. Scientific Reports 6:25523 (DOI: 10.1038/srep25523). The best BRAID fit was determined to be k 2.00 (0.583-3.64), where k>0 denotes synergy, k=0 denotes additivity, and k<0 denotes antagonism. Potentiation modeling curves are provided for potentiation of Compound 2 at four concentrations of stampidine (FIG. 7A) and for potentiation of stampidine at four concentrations of Compound 2 (FIG. 7B).

[1] = test system: interferon-stimulated gene (ISG) response; test: In vivo decitabine challenge model in C57BL/6 mice; conditions: kidneys, decitabine i.p. 5 mg/kg, compound 1, 10, 100 mg/kg p.o. once a day
Description: Exemplary compounds were tested for ability to alter the interferon-stimulated gene (ISG) response in C57BL/6 mice treated with decitabine. Assay procedures and results are described below. Twenty 9-11 week old C57BL/6 mice were acclimated to the lab for at least 5 days. Compound 23 was prepared in a 0.5% methylcellulose solution for p.o. administration. Decitabine (Sigma-Aldrich) was dissolved in sterile PBS (pH 7.4) and dosed within 30 minutes of preparation of the solution. Doses of both the compound and decitabine were administered once a day, every day from Day 0 to Day 4. […] The fold changes in interferon-stimulated gene (ISG) expression was calculated by first normalizing to GAPDH gene using the Delta CT method. The CT (gene of interest) —CT (reference gene) was calculated to generate a delta CT for all samples. […] The fold changes in interferon-stimulated gene (ISG, specifically IRF7 and MX1) expression was calculated by first normalizing to GAPDH gene using the Delta CT method. The CT (gene of interest)−CT (reference gene) was calculated to generate a delta CT for all samples. The fold change was then calculated by taking the […](Delta CT(control)−Delta CT (experimental). The control in this example was the PBS control animal group. Individual primers were used to amplify target genes.

`Nc1ccn([C@H]2C[C@H](O)[C@](CO)(CCl)O2)c(=O)n1` [Compound 2, 4-amino-1-((2R,4S,5R)-5-(chloromethyl)-4-hydroxy-5-(hydroxymethyl)tetrahydrofuran-2-yl)pyrimidin-2(1H)-one] gave an EC50 (THP1-Dual KO-TREX1 cells; Stampidine 0 μM) of 40 nM, an EC50 (THP1-Dual KO-TREX1 cells; Stampidine 0.001 μM) of 33.5 nM and an EC50 (THP1-Dual KO-TREX1 cells; Stampidine 0.01 μM) of 20.3 nM. For the same compound, the EC50 (THP1-Dual KO-TREX1 cells; Stampidine 0.1 μM) was 0.15 nM, the “BRAID fit k (k>0 denotes synergy)” value (THP1-Dual KO-TREX1 cells; combination of stampidine and Compound 2, 1 μM 5-aza-2′-deoxycytidine, five days) was 2.00 (0.583-3.64) and the “change in ISG response (IRF7 and MX1), FIGS. 2B and 2C” value [1] was “shows a change in the ISG response”.
